Assay results taken from patent publication US11198741B2, “Medicines for topic use based on sulfated hyaluronic acid as activating or inhibiting agent of the cytokine activity” (Fidia Farmaceutici S.p.A., priority 2009, dated 2021).

Tests used:
[1] = system: Herpes Simplex Virus-2 (HSV-2: G, 196 and Lyons strain); assay: Inhibition of viral cytopathogenicity in E6SM fibroblast cells, HSV-2; type: cell-based; conditions: 2nd day of incubation, numbers only in FIG. 10
IL-6 receptor = target: T1, IL-6 receptor (Homo sapiens, UniProt P08887); assay: Inhibition of the binding of 125I-IL-6 to its receptor in U266 myeloma cells (Radioligand Binding); conditions: 125I-IL-6 0.08 nM, sample 1 mg/ml, 4° C. 16 hours, both medium and low MW
T1 construct: the line of human myeloma U266 was used, sensitive to the cytotoxic activity of IL-6, expressing its relative receptor; endogenous in cells; host or cells: U266 human myeloma (whole cells)
T1 sequence (P08887 20-468): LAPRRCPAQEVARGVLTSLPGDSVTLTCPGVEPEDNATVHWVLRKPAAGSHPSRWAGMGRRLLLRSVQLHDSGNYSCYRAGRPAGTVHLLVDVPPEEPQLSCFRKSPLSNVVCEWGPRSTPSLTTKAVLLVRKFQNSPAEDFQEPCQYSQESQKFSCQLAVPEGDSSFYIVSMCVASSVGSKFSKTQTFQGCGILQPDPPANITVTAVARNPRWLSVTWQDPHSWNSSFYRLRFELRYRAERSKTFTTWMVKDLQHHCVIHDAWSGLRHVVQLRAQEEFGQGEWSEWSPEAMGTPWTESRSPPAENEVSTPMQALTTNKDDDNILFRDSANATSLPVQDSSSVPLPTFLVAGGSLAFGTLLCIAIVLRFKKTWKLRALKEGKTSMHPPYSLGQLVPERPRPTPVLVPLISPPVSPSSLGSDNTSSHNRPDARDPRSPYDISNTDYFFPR
From the text: These experiments were effected to evaluate the effectiveness of the samples tested (prepared according to Examples 1-3 and 4) on the capacity of inhibiting the binding of IL-6 to its receptor expressed in human myeloma U266, normally used in vitro for this type of experiment, carried out with iodinated cytokine components for an evaluation in Radioligand Binding assays. The experimental procedure was effected as described in Taga T. et al., J Exp Med, 1987, 166:967-981. In short, the line of human myeloma U266 was used, sensitive to the cytotoxic activity of IL-6, expressing its relative receptor. […] At the end of the incubation, the cells were washed with phosphate buffer, centrifuged at 9,000 rpm and the pellet counted in a γ-counter.

IL-2 = assay: Protein synthesis of IL-2 in human PBMC (SearchLight array); conditions: not stimulated or stimulated with LPS or PHA (10 μg/ml), 24 hours, FIG. 6: HAS1 0.1 mg/ml, HAS3 1 mg/ml, vs HA
Description: (§1) For these experimentations, mononucleate cells of human peripheral blood (PBMC) were adopted, deriving from various donors for evaluating the effect of HAS on the production of the cytokines listed above, using:
(§2) The separation of the PBMC (Bøyum A., Scand J Clin Lab Invest 21 Suppl, 1968, 97:77-89) was effected using the product Ficoll-Paque PLUS (GE Healthcare) and following the protocol indicated by the supplier. At day zero 100,000 cells were plated per well (using plates with 96 wells) in 200 μl of medium RPMI 1640, to which 10% of fetal bovine serum, HEPES 10 mM, Glutamine 2 mM, 1% Penicillin-Streptomycin 100 U/ml, had been added. […] The cells were treated separately with the three compounds at a concentration of 0.1 mg/ml or 1 mg/ml. After 24 hours of incubation at 37° C. (5% CO2), 100 μl of supernatant were taken from each well in order to analyze the production of IL-2, IL-7, IL-10 and IL-12.
(§3) The quantification of the inflammation mediators was effected by means of the SearchLight® technology, using a Custom Human 9-flex Array plate following the protocol indicated by the supplier in the technical card.

[2] = Hydrating and protective activity of creams on the forearm (corneometer, Visioscan); type: in vivo; conditions: human subjects
Description: 20 human subjects aged between 18 and 70 years, with no skin pathologies and pharmacological treatment underway, were treated daily with certain and constant quantities of the products tested, at the level of the forearm. The experimental products were: control: consisting of a hydrating base cream base cream (as control) containing HA 200 KD 01% base cream (as control) containing HAS3 01%, prepared according to Example 1-2 […]

[3] = system: Vesicular stomatitis virus: VSV; type: cell-based
[4] = type: in vitro ADME
Description: The skin used for effecting the experiments is obtained from the abdomen of patients between 30 and 50 years old, subjected to surgical abdominal reductions. The sections of skin with a complete thickness are frozen after the surgical intervention and preserved at −20° C. until the moment of the experiment, in which the samples are defrozen at room temperature and accurately separated from the adipose tissue. The skin is divided into square sections of 2.5 cm^2, immersed for a minute in water at a temperature of 60° C. and with the help of specific tweezers, the corneal layer and epidermis (SCE) are accurately separated from the underlying tissues. The samples obtained are analyzed with an optical microscope and discarded if punctures are found. The SCE is assembled in the lower part of a Franz cell with the epidermis facing downwards and the corneal layer in contact with the donor solution which is situated above. The permeation area is a circular surface of 0.636 cm^2. […] Each experiment is effected triply and the result is intended as the average of the 3, expressed as quantity of analyte which has crossed the surface unit of skin after 24 hours. […] The concentration of diclofenac was determined through reverse-phase HPLC analysis on an apparatus Agilent 1200 Series and UV detection (254 nm), C18 column, eluent acetonitrile/water/acetic acid 50/46/4 with a flow of 1.2 ml/min.

[5] = system: Cytomegalovirus (CMV: AD-169 and Davis strain); assay: Inhibition of Cytomegalovirus plaque formation in HEL cells; type: cell-based; conditions: numbers only in FIG. 11
Description: The activity of the samples tested was determined by evaluating the inhibition of the cytopathogenicity determined by Cytomegalovirus (CMV: AD-169 and Davis strain) using the previous protocol. The antiviral activity was tested vs HEL cells (pulmonary embryonic cells) and was expressed as the concentration required for inhibiting the number of plaques formed by the above virus by 50%.

[6] = system: Herpes Simplex Virus-1 (HSV-1: KOS, F and McIntyre strain); assay: Inhibition of viral cytopathogenicity in E6SM fibroblast cells, HSV-1; type: cell-based; conditions: 2nd day of incubation, numbers only in FIG. 10
IL-7 = assay: Protein synthesis of IL-7 in human PBMC (SearchLight array); conditions: not stimulated or stimulated with LPS or PHA (10 μg/ml), 24 hours, FIG. 7: 1 mg/ml, vs HA
Description: as §1, §2, §3

In the case of “sulfated hyaluronic acid degree 3 [HAS3]”, the “antiviral activity (inhibition of the cytopathogenicity of the virus) vs HSV-2” value [1] is reported as “powerful antiviral action”, the “inhibition of the binding of IL-6 to its receptor” value (IL-6 receptor) is reported as 100% and the “synthesis of IL-2” value (IL-2) is reported as “significantly reducing”. The skin roughness index ([2]; after 7 days of treatment, base cream containing HAS3 01%, with respect to the controls) was “significantly diminished”, the “hydrating effect of the skin (corneometer)” value ([2]; daily, T7 vs T0, base cream containing HAS3 01%, vs base cream and cream containing HA) was “greater hydrating effect” and the “antiviral activity (inhibition of the cytopathogenicity of the virus) vs VSV” value [3] was “very powerful antiviral activity”. For the same substance, the “total permeate quantity of diclofenac in 24 h” value [4] was “doubling”, the “antiviral activity vs Cytomegalovirus (inhibition of the number of plaques)” value [5] was “clear and significant positive result” and the “antiviral activity (inhibition of the cytopathogenicity of the virus) vs HSV-1” value [6] was “powerful antiviral action”. For the same substance, the “synthesis of IL-7” value (IL-7) was “significantly reducing”.
